Assay: mn = molality of the nth substance listed, in mol/kg
Details: 84.51 kPa, Liquid; for speed of sound: Frequency=3 MHz, Sing-around technique in a fixed-path interferometer; for mass density: Vibrating tube method

CCCCCCCCCCCCn1cc[n+](C)c1.[Br-] [1-dodecyl-3-methylimidazolium bromide] + O
Details	mass density [kg/m3]	speed of sound [m/s]
288.15 K, m1 = 0.00233	999.188	1467.3
288.15 K, m1 = 0.00278	999.209	1467.4
288.15 K, m1 = 0.00301	999.216	1467.5
288.15 K, m1 = 0.00467	999.282	1467.7
288.15 K, m1 = 0.00501	999.296	1467.9
288.15 K, m1 = 0.00665	999.36	1468.4
288.15 K, m1 = 0.00889	999.451	1469
288.15 K, m1 = 0.00906	999.458	1469
288.15 K, m1 = 0.01229	999.569	1469.4
288.15 K, m1 = 0.01511	999.659	1469.4
288.15 K, m1 = 0.01804	999.736	1469.5
288.15 K, m1 = 0.02431	999.927	1469.6
288.15 K, m1 = 0.03042	1000.12	1469.7
288.15 K, m1 = 0.04595	1000.6	1470
288.15 K, m1 = 0.06124	1001.06	1470.2
288.15 K, m1 = 0.07667	1001.51	1470.5
288.15 K, m1 = 0.098	1002.15	1471
288.15 K, m1 = 0.1095	1002.5	1471.1
293.15 K, m1 = 0.00233	998.288	1483.3
293.15 K, m1 = 0.00278	998.306	1483.3
293.15 K, m1 = 0.00301	998.314	1483.4
293.15 K, m1 = 0.00467	998.376	1483.7
293.15 K, m1 = 0.00501	998.39	1483.9
293.15 K, m1 = 0.00665	998.451	1484.2
293.15 K, m1 = 0.00889	998.538	1484.8
293.15 K, m1 = 0.00906	998.544	1484.8
293.15 K, m1 = 0.01229	998.652	1485.1
293.15 K, m1 = 0.01511	998.738	1485.1
293.15 K, m1 = 0.01804	998.815	1485.2
293.15 K, m1 = 0.02431	998.999	1485.2
293.15 K, m1 = 0.03042	999.185	1485.3
293.15 K, m1 = 0.04595	999.641	1485.4
293.15 K, m1 = 0.06124	1000.09	1485.5
293.15 K, m1 = 0.07667	1000.53	1485.7
293.15 K, m1 = 0.098	1001.14	1486
293.15 K, m1 = 0.1095	1001.48	1486.1
298.15 K, m1 = 0.00233	997.123	1497.4
298.15 K, m1 = 0.00278	997.142	1497.4
298.15 K, m1 = 0.00301	997.148	1497.6
298.15 K, m1 = 0.00467	997.208	1497.8
298.15 K, m1 = 0.00501	997.221	1497.9
298.15 K, m1 = 0.00665	997.28	1498.2
298.15 K, m1 = 0.00889	997.362	1498.8
298.15 K, m1 = 0.00906	997.366	1498.8
298.15 K, m1 = 0.01229	997.472	1499.1
298.15 K, m1 = 0.01511	997.555	1499.1
298.15 K, m1 = 0.01804	997.629	1499.1
298.15 K, m1 = 0.02431	997.806	1499.1
298.15 K, m1 = 0.03042	997.989	1499.1
298.15 K, m1 = 0.04595	998.429	1499.1
298.15 K, m1 = 0.06124	998.861	1499
298.15 K, m1 = 0.07667	999.288	1499.1
298.15 K, m1 = 0.098	999.878	1499.2
298.15 K, m1 = 0.1095	1000.21	1499.2
303.15 K, m1 = 0.00233	995.721	1509.7
303.15 K, m1 = 0.00278	995.74	1509.7
303.15 K, m1 = 0.00301	995.746	1509.8
303.15 K, m1 = 0.00467	995.801	1510
303.15 K, m1 = 0.00501	995.814	1510
303.15 K, m1 = 0.00665	995.873	1510.4
303.15 K, m1 = 0.00889	995.95	1511
303.15 K, m1 = 0.00906	995.955	1511
303.15 K, m1 = 0.01229	996.058	1511.2
303.15 K, m1 = 0.01511	996.137	1511.2
303.15 K, m1 = 0.01804	996.207	1511.2
303.15 K, m1 = 0.02431	996.381	1511.1
303.15 K, m1 = 0.03042	996.556	1511
303.15 K, m1 = 0.04595	996.985	1510.9
303.15 K, m1 = 0.06124	997.402	1510.8
303.15 K, m1 = 0.07667	997.814	1510.7
303.15 K, m1 = 0.098	998.386	1510.5
303.15 K, m1 = 0.1095	998.705	1510.5
308.15 K, m1 = 0.00233	994.1	1520.3
308.15 K, m1 = 0.00278	994.121	1520.2
308.15 K, m1 = 0.00301	994.125	1520.4
308.15 K, m1 = 0.00467	994.18	1520.6
308.15 K, m1 = 0.00501	994.193	1520.6
308.15 K, m1 = 0.00665	994.246	1520.9
308.15 K, m1 = 0.00889	994.32	1521.4
308.15 K, m1 = 0.00906	994.325	1521.4
308.15 K, m1 = 0.01229	994.423	1521.7
308.15 K, m1 = 0.01511	994.502	1521.6
308.15 K, m1 = 0.01804	994.571	1521.6
308.15 K, m1 = 0.02431	994.739	1521.5
308.15 K, m1 = 0.03042	994.91	1521.4
308.15 K, m1 = 0.04595	995.323	1521.1
308.15 K, m1 = 0.06124	995.729	1520.8
308.15 K, m1 = 0.07667	996.129	1520.7
308.15 K, m1 = 0.098	996.685	1520.3
308.15 K, m1 = 0.1095	996.993	1520.1
313.15 K, m1 = 0.00233	992.28	1529.3
313.15 K, m1 = 0.00278	992.299	1529.3
313.15 K, m1 = 0.00301	992.305	1529.4
313.15 K, m1 = 0.00467	992.357	1529.6
313.15 K, m1 = 0.00501	992.368	1529.6
313.15 K, m1 = 0.00665	992.422	1529.8
313.15 K, m1 = 0.00889	992.489	1530.3
313.15 K, m1 = 0.00906	992.495	1530.3
313.15 K, m1 = 0.01229	992.591	1530.6
313.15 K, m1 = 0.01511	992.671	1530.5
313.15 K, m1 = 0.01804	992.736	1530.5
313.15 K, m1 = 0.02431	992.896	1530.3
313.15 K, m1 = 0.03042	993.064	1530.1
313.15 K, m1 = 0.04595	993.467	1529.7
313.15 K, m1 = 0.06124	993.86	1529.3
313.15 K, m1 = 0.07667	994.248	1529
313.15 K, m1 = 0.098	994.79	1528.5
313.15 K, m1 = 0.1095	995.087	1528.2
